The values that follow come from publication PMC6429159, “Evolution and Biological Evaluation of Matrinic Derivatives with Amantadine Fragments As New Anti-Influenza Virus Agents” (Molecules, 2019).

Counter-ions that a name gives are not always drawn. Like-named read-outs stand apart in the source and are kept apart here.

A short description of data set [1]: Stability assay in whole blood. It counts as in vitro ADME, SD rats. As to conditions: 37 °C; for stability in whole blood (in words): in vitro. As to the method:
The results hinted that 9f owned a good PK stability profile in blood, and it was chosen for the next investigation.
The fresh bloods were collected on the day of experiment from SD rats, and pre-warmed in a water bath at 37 °C. A concentration of 10 mM tested compound or enalapril stock solutions were prepared in DMSO, and then diluted with 45% MeOH/H2O to achieve […] dosing solutions. […] At the end of incubation, for each sample, […] water and […] of stop solution (200 ng·mL^−1 tolbutamide plus 20 ng·mL^−1 buspirone in acetonitrile) were immediately added to precipitate the protein, and centrifuged at 4000 rpm for 20 min. An aliquot of supernatant ([…]) was then extracted, mixed with […] H2O, and then shaken at 800 rpm for about 10 min before being submitted for a liquid chromatography-tandem mass […] (LC-MS/MS) analysis. The experiment was repeated twice.
Figure 3 The stability assessments of key compounds 9f and 9j in whole blood. […]

For data set [2], the system named is H3N2 virus non-structural protein 1 (NS1). As to the kind of experiment: Anti-H3N2 activity at the protein level, NS1 Western blot. It counts as cell-based, Influenza A virus. The conditions noted are these: 40 μM, MDCK cells, MOI 0.003, 24 hr. Background: In western blotting, separated proteins are transferred to a membrane and probed.
Data set [3] concerns influenza virus A/hanfang/359/95 (H3N2). Description: organism not typed. The format is cell-based. The conditions noted are these: 50% virus-inhibitory concentration after 40 hr at 37 °C, MDCK cells; – = no anti-H3N2 activity at the maximum non-toxic concentration.
Data set [4] concerns influenza virus A/Fort Monmouth/1/1947 (H1N1). As to the kind of experiment: organism not typed. The format is cell-based. As to conditions: MDCK cells, CPE.
Another data set relates to Kunming mice. The conditions noted are these: for weight loss and behaviour: oral single dose 125, 250, 500 mg·kg^–1, seven days, compared to control; for median lethal dose (LD50): oral single dose, Kunming mice, monitored seven days. As to the method: The acute toxicity tests of the two key compounds 9f and 9j were performed in Kunming mice. Each compound was given orally in a single-dosing experiment at 125, 250, and 500 mg·kg^–1, respectively. Then, the mice were closely monitored for seven days.
Female Kunming mice with weights of 20.0 (±1.0 g) were fed with regular rodent chow, and housed in an air-conditioned room. The mice were randomly divided into different groups with 10 mice each. Each compound was given orally in a single-dosing experiment at 125, 250, or 500 mg·kg^−1, respectively. The mice were closely monitored for seven days. Body weight, as well as survival, was monitored.

The test system of data set [5] is MDCK cells. Description: Cytotoxicity assay. It counts as cell-based. The conditions noted are these: 50% cytotoxic concentration, 48 hr. Here is the method:
A three-fold dilution compound was added to cell monolayer, and the cells continued to be cultivated for 48 hr, and then the CPE was recorded. The TC50 value of each compound was calculated by the methods of Reed & Muench.

The subject of data set [6] is MDCK cells. The conditions noted are these: lead 1, value of previous study; cited from earlier work.
A further data set deals with IAV M2. It counts as cell-based, Influenza A virus.

What is called IC50 is the concentration at which inhibition is half-maximal. A high value points to lower potency. Turning to `O=C(CC1CC2CCC1C2)OCCCC[C@@H]1[C@H]2CCCN3CCC[C@@H](CN1S(=O)(=O)c1cccc(C(F)(F)F)c1)[C@@H]23` (some centres unmarked) [Compound 9j, 12N-m-Trifluoromethlybenzenesulfonyl matrinic butyl-2’-norbornane acetate hydrochloride], the “remaining rate of protype in whole blood” value in data set [1] (30 min) amounted to 47.7%; in data set [1] (120 min), 1.3%. Further, in data set [1], the “stability in whole blood (in words)” value is “poor stability”. In addition, in data set [2], the “H3N2 virus NS1 level” value is “significantly reduce”. Moreover, the concentration for half-maximal inhibition (IC50) was found to be 10.2 ± 1.8 µM in data set [3] and 22.6 ± 1.3 µM in data set [4]. For the same compound, the “weight loss and behaviour” value in the data set with Kunming mice is reported as “neither significant weight loss nor behavioral abnormality”. In addition, in the data set on Kunming mice, the “median lethal dose (LD50)” value is reported as “higher than 500 mg·kg^–1”. The compound also yielded a TC50 in the data set on MDCK cells [5] of 110.3 ± 18.5 µM.
Turning to `CCCCC1C2CCCN3CCCC(CN1Cc1ccc(C(=O)O)cc1)C23` (centres unmarked) [Compound 1, 12N-p-carboxybenzyl matrinic butane], the TC50 with MDCK cells [6] is recorded as more than 540.5 µM.
As to `O=C(OCCCC[C@@H]1[C@H]2CCCN3CCC[C@@H](CN1S(=O)(=O)c1cccc(C(F)(F)F)c1)[C@@H]23)C12CC3CC(CC(Br)(C3)C1)C2` [Compound 9f, 12N-m-Trifluoromethlybenzenesulfonylmatrinicbutyl-3’-bromoadamantane-1’-carboxylate hydrochloride], the “remaining rate of protype in whole blood” value in data set [1] (60 min) stood at 100%; in data set [1] (120 min), 97.9%. The “stability in whole blood (in words)” value in data set [1] is given as “high stability profile”. Further, the “H3N2 virus NS1 level” value in data set [2] is given as “significantly reduce”. Further, the 50% inhibitory concentration (IC50) turned out to be 7.2 ± 1.1 µM in data set [3] and 23.4 ± 1.5 µM in data set [4]. The “weight loss and behaviour” value with Kunming mice is given as “neither significant weight loss nor behavioral abnormality”. Also, the “median lethal dose (LD50)” value in the data set with Kunming mice is “higher than 500 mg·kg^–1”. In the data set on MDCK cells [5], the TC50 came out at 75.7 ± 14.2 µM. Further, the M2 level result in the data set on IAV M2 is “significantly reduce”.
